Columns and labels:
[1] = system: SETVI (Foxtail, Green); experiment: Preemergence herbicidal evaluation; type: in vivo, Setaria viridis; conditions: rated 4-5 weeks after treatment
How it was run: (§1)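 Rating at 4–5 wk post-spray on a 0–9 visual scale vs control. Application: aqueous acetone, ~0.0156–0.500 kg/ha, to soil surface after seeding, preemergence.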

[2] = system: SAGPY (Arrowhead (Pygmaea)); experiment: Preemergence weed control under flooded paddy conditions; type: in vivo, Sagittaria pygmaea; conditions: rated 3-4 weeks after treatment
How it was run: (§2)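 Herbicidal effect is scored visually on a 0-9 scale against an untreated control, three to four weeks after compounds are pipetted into the flood water (1.5 to 3 cm deep) over seeds planted in silt loam at 0.5 cm depth. Rates: about 0.0313 to 0.500 kg/ha.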

[3] = system: ZEAMX (Corn, Field); experiment: Postemergence herbicidal evaluation; type: in vivo, Zea mays; conditions: for ZEAMX herbicidal rating: postemergence
How it was run: (§3)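 Each compound, dispersed in an acetone/water mix (50/50) carrying 0.5% TWEEN 20, is nozzle-sprayed at 40 psi on approximately two-week-old seedlings at about 0.0156–0.500 kg/ha. Plants are assessed 4–5 weeks afterward on a 0–9 scale relative to control; duplicate tests are averaged.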

[4] = system: GALAP (Galium); experiment: Preemergence herbicidal evaluation; type: in vivo, Galium aparine; conditions: rated 4-5 weeks after treatment
How it was run: as §1

[5] = system: AMBEL (Ragweed, Common); experiment: Postemergence herbicidal evaluation; type: in vivo, Ambrosia artemisifolia; conditions: for AMBEL herbicidal rating: postemergence
How it was run: as §3

[6] = system: CASOB (Sicklepod); experiment: Preemergence herbicidal evaluation; type: in vivo, Cassia obtusifolia; conditions: rated 4-5 weeks after treatment
How it was run: as §1

[7] = system: GLXMAW (Soybean, Williams); experiment: Preemergence herbicidal evaluation; type: in vivo, Glycine max, (L.) Merr. cv Williams; conditions: rated 4-5 weeks after treatment
How it was run: as §1

[8] = system: CYPSE (Flatsedge); experiment: Preemergence weed control under flooded paddy conditions; type: in vivo, Cyperus serotinus; conditions: rated 3-4 weeks after treatment
How it was run: as §2

[9] = system: GLXMAW (Soybean, Williams); experiment: Postemergence herbicidal evaluation; type: in vivo, Glycine max, (L.) Merr. cv Williams; conditions: for GLXMAW herbicidal rating: postemergence
How it was run: as §3

[10] = system: IPOHE (Morningglory, Ivyleaf); experiment: Postemergence herbicidal evaluation; type: in vivo, Ipomoea hederacea; conditions: for IPOHE herbicidal rating: postemergence
How it was run: as §3

[11] = system: ECHORC (Watergrass (Calif.)); experiment: Postemergence weed control under flooded paddy conditions; type: in vivo, Echinochloa oryzoides; conditions: postemergence weeds, 3-4 weeks after treatment
How it was run: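 Weeds 3 to 5 cm tall and rice seedlings at the 1.5 to 2.5 leaf stage were flooded, with water held 1.5 to 3 cm above the soil. Compounds in 50/50 v/v aqueous/acetone went into the flood water at about 0.0313 to 0.500 kg/ha. Visual 0-9 ratings versus control were made 3 to 4 weeks later.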

[12] = system: AMBEL (Ragweed, Common); experiment: Preemergence herbicidal evaluation; type: in vivo, Ambrosia artemisifolia; conditions: rated 4-5 weeks after treatment
How it was run: as §1

[13] = system: ECHCG (Barnyardgrass); experiment: Preemergence herbicidal evaluation; type: in vivo, Echinochloa crus-galli; conditions: rated 4-5 weeks after treatment
How it was run: as §1

[14] = system: ABUTH (Velvetleaf); experiment: Preemergence herbicidal evaluation; type: in vivo, Abutilon theophrasti; conditions: rated 4-5 weeks after treatment
How it was run: as §1

Cn1c(C(F)(F)F)cc(=O)n(-c2cc(/N=C3/SCC(=O)N3CC(=O)O)c(Cl)cc2F)c1=O [Compound 52, 2-{{2-Chloro-5-[3,6-dihydro-3-methyl-2,6-dioxo-4-(trifluoromethyl)-1(2H)-pyrimidinyl]-4-fluoro-phenyl}imino}-4-oxo-3-thiazolidineacetic acid]
0.0: Preemergence herbicidal rating SETVI ([1]; rate 0.0313 kg/ha) | Preemergence herbicidal rating SETVI ([1]; rate 0.0625 kg/ha) | Herbicidal rating SAGPY ([2]; 0.2500 kg/ha) | Preemergence herbicidal rating GALAP ([4]; rate 0.0313 kg/ha) | Preemergence herbicidal rating GALAP ([4]; rate 0.0625 kg/ha) | Preemergence herbicidal rating GALAP ([4]; rate 0.1250 kg/ha) | Preemergence herbicidal rating CASOB ([6]; rate 0.0313 kg/ha) | Preemergence herbicidal rating CASOB ([6]; rate 0.0625 kg/ha) | Preemergence herbicidal rating GLXMAW ([7]; rate 0.0313 kg/ha) | Herbicidal rating CYPSE ([8]; 0.2500 kg/ha) | Herbicidal rating ECHORC ([11]; rate 0.2500 kg/ha) | Preemergence herbicidal rating AMBEL ([12]; rate 0.0313 kg/ha) | Preemergence herbicidal rating AMBEL ([12]; rate 0.0625 kg/ha) | Preemergence herbicidal rating ECHCG ([13]; rate 0.0313 kg/ha) | Preemergence herbicidal rating ECHCG ([13]; rate 0.0625 kg/ha) | Preemergence herbicidal rating ECHCG ([13]; rate 0.1250 kg/ha)
2.0: Preemergence herbicidal rating GLXMAW ([7]; rate 0.2500 kg/ha) | Preemergence herbicidal rating AMBEL ([12]; rate 0.1250 kg/ha)
5.0: Postemergence herbicidal rating ZEAMX ([3]; Rate 0.0158 kg/ha) | Postemergence herbicidal rating AMBEL ([5]; Rate 0.0630 kg/ha) | Postemergence herbicidal rating GLXMAW ([9]; Rate 0.0158 kg/ha)
9.0: Preemergence herbicidal rating SETVI ([1]; rate 0.2500 kg/ha) | Postemergence herbicidal rating IPOHE ([10]; Rate 0.0315 kg/ha) | Postemergence herbicidal rating IPOHE ([10]; Rate 0.0630 kg/ha) | Preemergence herbicidal rating ABUTH ([14]; rate 0.0313 kg/ha) | Preemergence herbicidal rating ABUTH ([14]; rate 0.0625 kg/ha) | Preemergence herbicidal rating ABUTH ([14]; rate 0.1250 kg/ha) | Preemergence herbicidal rating ABUTH ([14]; rate 0.2500 kg/ha)
7.0: Postemergence herbicidal rating ZEAMX ([3]; Rate 0.0630 kg/ha) | Preemergence herbicidal rating GALAP ([4]; rate 0.2500 kg/ha)
7.5: Postemergence herbicidal rating ZEAMX ([3]; Rate 0.0315 kg/ha)
6.0: Postemergence herbicidal rating GLXMAW ([9]; Rate 0.0315 kg/ha) | Postemergence herbicidal rating GLXMAW ([9]; Rate 0.0630 kg/ha)
3.0: Postemergence herbicidal rating AMBEL ([5]; Rate 0.0315 kg/ha) | Preemergence herbicidal rating AMBEL ([12]; rate 0.2500 kg/ha)
4.0: Postemergence herbicidal rating IPOHE ([10]; Rate 0.0158 kg/ha)
1.0: Preemergence herbicidal rating SETVI ([1]; rate 0.1250 kg/ha) | Postemergence herbicidal rating AMBEL ([5]; Rate 0.0158 kg/ha) | Preemergence herbicidal rating CASOB ([6]; rate 0.1250 kg/ha) | Preemergence herbicidal rating CASOB ([6]; rate 0.2500 kg/ha) | Preemergence herbicidal rating GLXMAW ([7]; rate 0.0625 kg/ha) | Preemergence herbicidal rating GLXMAW ([7]; rate 0.1250 kg/ha) | Preemergence herbicidal rating ECHCG ([13]; rate 0.2500 kg/ha)

C=CCN1C(=O)CSC1=Nc1cc(-n2c(=O)cc(C(F)(F)F)n(C)c2=O)c(F)cc1Cl [Compound 27]
4.0: Herbicidal rating SAGPY ([2]; 0.1250 kg/ha) | Herbicidal rating SAGPY ([2]; 0.2500 kg/ha) | AMBEL herbicidal rating ([5]; rate 0.0158 kg/ha)
9.0: Preemergence herbicidal rating SETVI ([1]; rate 0.0313 kg/ha) | Preemergence herbicidal rating SETVI ([1]; rate 0.0625 kg/ha) | Preemergence herbicidal rating SETVI ([1]; rate 0.1250 kg/ha) | Preemergence herbicidal rating SETVI ([1]; rate 0.2500 kg/ha) | Preemergence herbicidal rating GALAP ([4]; rate 0.0313 kg/ha) | Preemergence herbicidal rating GALAP ([4]; rate 0.0625 kg/ha) | Preemergence herbicidal rating GALAP ([4]; rate 0.1250 kg/ha) | Preemergence herbicidal rating GALAP ([4]; rate 0.2500 kg/ha) | Preemergence herbicidal rating GLXMAW ([7]; rate 0.0625 kg/ha) | Preemergence herbicidal rating GLXMAW ([7]; rate 0.1250 kg/ha) | Herbicidal rating CYPSE ([8]; 0.2500 kg/ha) | IPOHE herbicidal rating ([10]; rate 0.0158 kg/ha) | IPOHE herbicidal rating ([10]; rate 0.0315 kg/ha) | IPOHE herbicidal rating ([10]; rate 0.0630 kg/ha) | Herbicidal rating ECHORC ([11]; rate 0.1250 kg/ha) | Herbicidal rating ECHORC ([11]; rate 0.2500 kg/ha) | Preemergence herbicidal rating AMBEL ([12]; rate 0.1250 kg/ha) | Preemergence herbicidal rating ECHCG ([13]; rate 0.0625 kg/ha) | Preemergence herbicidal rating ECHCG ([13]; rate 0.1250 kg/ha) | Preemergence herbicidal rating ECHCG ([13]; rate 0.2500 kg/ha) | Preemergence herbicidal rating ABUTH ([14]; rate 0.0313 kg/ha) | Preemergence herbicidal rating ABUTH ([14]; rate 0.0625 kg/ha) | Preemergence herbicidal rating ABUTH ([14]; rate 0.1250 kg/ha) | Preemergence herbicidal rating ABUTH ([14]; rate 0.2500 kg/ha)
6.5: ZEAMX herbicidal rating ([3]; rate 0.0630 kg/ha) | GLXMAW herbicidal rating ([9]; rate 0.0315 kg/ha)
8.0: Preemergence herbicidal rating ECHCG ([13]; rate 0.0313 kg/ha)
0.0: Preemergence herbicidal rating SETVI ([1]; rate 0.0156 kg/ha) | Herbicidal rating SAGPY ([2]; 0.0313 kg/ha) | Herbicidal rating SAGPY ([2]; 0.0625 kg/ha) | Preemergence herbicidal rating GALAP ([4]; rate 0.0156 kg/ha) | Preemergence herbicidal rating CASOB ([6]; rate 0.0156 kg/ha) | Preemergence herbicidal rating CASOB ([6]; rate 0.0313 kg/ha) | Preemergence herbicidal rating CASOB ([6]; rate 0.0625 kg/ha) | Preemergence herbicidal rating CASOB ([6]; rate 0.1250 kg/ha) | Preemergence herbicidal rating CASOB ([6]; rate 0.2500 kg/ha) | Preemergence herbicidal rating GLXMAW ([7]; rate 0.0156 kg/ha) | Preemergence herbicidal rating GLXMAW ([7]; rate 0.0313 kg/ha) | Herbicidal rating CYPSE ([8]; 0.0313 kg/ha) | Herbicidal rating CYPSE ([8]; 0.0625 kg/ha) | Herbicidal rating CYPSE ([8]; 0.1250 kg/ha) | Preemergence herbicidal rating AMBEL ([12]; rate 0.0156 kg/ha) | Preemergence herbicidal rating ECHCG ([13]; rate 0.0156 kg/ha)
7.5: GLXMAW herbicidal rating ([9]; rate 0.0630 kg/ha)
5.5: ZEAMX herbicidal rating ([3]; rate 0.0315 kg/ha)
2.0: Preemergence herbicidal rating AMBEL ([12]; rate 0.0313 kg/ha) | Preemergence herbicidal rating AMBEL ([12]; rate 0.0625 kg/ha)
5.0: ZEAMX herbicidal rating ([3]; rate 0.0158 kg/ha) | AMBEL herbicidal rating ([5]; rate 0.0315 kg/ha)
7.0: AMBEL herbicidal rating ([5]; rate 0.0630 kg/ha) | Preemergence herbicidal rating GLXMAW ([7]; rate 0.2500 kg/ha) | Herbicidal rating ECHORC ([11]; rate 0.0625 kg/ha) | Preemergence herbicidal rating AMBEL ([12]; rate 0.2500 kg/ha) | Preemergence herbicidal rating ABUTH ([14]; rate 0.0156 kg/ha)
6.0: GLXMAW herbicidal rating ([9]; rate 0.0158 kg/ha) | Herbicidal rating ECHORC ([11]; rate 0.0313 kg/ha)

From patent publication US20020137929A1, “1 - (3-heterocyclylphenyl) isothiourea, -isourea, -guanidine and -amidine herbicidal agents” (Intellectual Property Department, BASF Aktiengesellschaft, priority 1998, published 2002)
